From patent US12077503B2, “Substituted cyclic amides and their use as herbicides” (FMC CORPORATION, priority 2015, dated 2024)
Like-named read-outs stand apart in the source and are kept apart here. Each block holds one compound with its values, some of them ahead of it.

Experiments:
[1] = system: ryegrass, Italian (Italian ryegrass, Lolium multiflorum); assay: Test A preemergence; assay type: in vivo; conditions: Lolium multiflorum, pre-emergence, 240 h; for pest or weed control at 500 g/ha: 500 g ai/ha; for pest or weed control at 125 g/ha: 125 g ai/ha
How it was run: (§1)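 Greenhouse, ~10 d after spray; visual injury vs untreated controls, 0 = no effect, 100 = complete control. Preemergence: directed soil spray over planted seeds. Postemergence: plants 2–10 cm, 1–2 leaf stage. Loam/sand blend. Compound in non-phytotoxic solvent with surfactant.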

[2] = system: giant foxtail (Setaria faberii); assay: Test A preemergence; assay type: in vivo; conditions: Setaria faberi, pre-emergence, 240 h; for pest or weed control at 125 g/ha: 125 g ai/ha; for pest or weed control at 500 g/ha: 500 g ai/ha
How it was run: as §1

[3] = system: barnyardgrass (Echinochloa crus-galli); assay: Test A preemergence; assay type: in vivo; conditions: Echinochloa crus-galli, pre-emergence, 240 h; for pest or weed control at 125 g/ha: 125 g ai/ha; for pest or weed control at 500 g/ha: 500 g ai/ha
How it was run: as §1

[4] = system: ragweed (common ragweed, Ambrosia elatior); assay: Test A preemergence; assay type: in vivo; conditions: Ambrosia artemisiifolia, pre-emergence, 240 h; for pest or weed control at 500 g/ha: 500 g ai/ha; for pest or weed control at 125 g/ha: 125 g ai/ha
How it was run: as §1

Kochia (Kochia scoparia) = assay: Test A preemergence; assay type: in vivo; conditions: Bassia scoparia, pre-emergence, 240 h; for pest or weed control at 125 g/ha: 125 g ai/ha; for pest or weed control at 500 g/ha: 500 g ai/ha
How it was run: as §1

[5] = preemergence, visual injury rating about 10 d after treatment, 0 to 100 scale (0 no effect, 100 complete control), read-out: Ryegrass, Italian plant response rating
[6] = preemergence, 0 to 100 scale where 0 is no effect and 100 is complete control, read-out: Foxtail, Giant plant response rating
[7] = preemergence, visual injury rating about 10 d after treatment, 0 to 100 scale (0 no effect, 100 complete control), read-out: Foxtail, Giant plant response rating
[8] = preemergence, 0 to 100 scale where 0 is no effect and 100 is complete control, read-out: Barnyardgrass plant response rating
[9] = preemergence, visual injury rating about 10 d after treatment, 0 to 100 scale (0 no effect, 100 complete control), read-out: Barnyardgrass plant response rating
[10] = preemergence, visual injury rating about 10 d after treatment, 0 to 100 scale (0 no effect, 100 complete control), read-out: Ragweed plant response rating
[11] = preemergence, 0 to 100 scale where 0 is no effect and 100 is complete control, read-out: Kochia plant response rating
[12] = preemergence, visual injury rating about 10 d after treatment, 0 to 100 scale (0 no effect, 100 complete control), read-out: Kochia plant response rating
[13] = preemergence, 0 to 100 scale where 0 is no effect and 100 is complete control, approx. 10 d, read-out: Ryegrass, Italian plant response rating
[14] = Preemergence, visual injury rating after approximately 10 d, read-out: Foxtail, Giant plant response rating (0 to 100 scale, 0 is no effect, 100 is complete control)
[15] = Preemergence, visual injury rating after approximately 10 d, read-out: Barnyardgrass plant response rating (0 to 100 scale, 0 is no effect, 100 is complete control)
[16] = preemergence, 0 to 100 scale where 0 is no effect and 100 is complete control, approx. 10 d, read-out: Ragweed plant response rating
[17] = preemergence, 0 to 100 scale where 0 is no effect and 100 is complete control, approx. 10 d, read-out: Kochia plant response rating
[18] = preemergence, 0 to 100 scale where 0 is no effect and 100 is complete control, read-out: Ryegrass, Italian plant response rating
[19] = Preemergence, visual injury vs untreated controls after approximately 10 d, read-out: Ryegrass, Italian plant response rating (0 to 100 scale where 0 is no effect and 100 is complete control)
[20] = Preemergence, visual injury vs untreated controls after approximately 10 d, read-out: Foxtail, Giant plant response rating (0 to 100 scale where 0 is no effect and 100 is complete control)
[21] = Preemergence, visual injury vs untreated controls after approximately 10 d, read-out: Barnyardgrass plant response rating (0 to 100 scale where 0 is no effect and 100 is complete control)
[22] = preemergence, 0 to 100 scale where 0 is no effect and 100 is complete control, read-out: Ragweed plant response rating
[23] = Preemergence, visual injury vs untreated controls after approximately 10 d, read-out: Ragweed plant response rating (0 to 100 scale where 0 is no effect and 100 is complete control)
[24] = Preemergence, visual injury vs untreated controls after approximately 10 d, read-out: Kochia plant response rating (0 to 100 scale where 0 is no effect and 100 is complete control)
[25] = preemergence, 0 to 100 scale where 0 is no effect and 100 is complete control, approx. 10 d, read-out: Foxtail, Giant plant response rating
[26] = preemergence, 0 to 100 scale where 0 is no effect and 100 is complete control, approx. 10 d, read-out: Barnyardgrass plant response rating
[27] = Preemergence, visual injury rating after approximately 10 d, read-out: Ryegrass, Italian plant response rating (0 to 100 scale, 0 is no effect, 100 is complete control)
[28] = Preemergence, visual injury rating after approximately 10 d, read-out: Ragweed plant response rating (0 to 100 scale, 0 is no effect, 100 is complete control)
[29] = Preemergence, visual injury rating after approximately 10 d, read-out: Kochia plant response rating (0 to 100 scale, 0 is no effect, 100 is complete control)

melting point: 160 to 163 °C
Structure (SMILES): CN1C[C@H](c2ccc(C(F)(F)F)cc2)[C@@H](C(=O)Nc2cccc(F)c2Br)C1=O [Compound 937]
pest or weed control at 500 g/ha [1, 5]: 50%
pest or weed control at 125 g/ha [2, 6]: 90%
pest or weed control at 500 g/ha [2, 7]: 90%
pest or weed control at 125 g/ha [3, 8]: 90%
pest or weed control at 500 g/ha [3, 9]: 90%
pest or weed control at 500 g/ha [4, 10]: 80%
pest or weed control at 125 g/ha (Kochia (Kochia scoparia); [11]): 80%
pest or weed control at 500 g/ha (Kochia (Kochia scoparia); [12]): 80%

melting point: 100 to 104 °C
Structure (SMILES): CSc1ccccc1NC(=O)C1C(=O)NCC1C=C(C)C (stereo not shown) [Compound 1055]
pest or weed control at 125 g/ha [1, 13]: 0%
pest or weed control at 500 g/ha [1, 5]: 0%
pest or weed control at 125 g/ha [2, 14]: 0%
pest or weed control at 500 g/ha [2, 7]: 0%
pest or weed control at 125 g/ha [3, 15]: 0%
pest or weed control at 500 g/ha [3, 9]: 0%
pest or weed control at 125 g/ha [4, 16]: 0%
pest or weed control at 500 g/ha [4, 10]: 0%
pest or weed control at 125 g/ha (Kochia (Kochia scoparia); [17]): 0%
pest or weed control at 500 g/ha (Kochia (Kochia scoparia); [12]): 0%

melting point: 159 to 163 °C
Structure (SMILES): CC(C)=CC1CNC(=O)C1C(=O)Nc1ccccc1S(C)(=O)=O (stereo not shown) [Compound 1057]
pest or weed control at 125 g/ha [1, 13]: 0%
pest or weed control at 500 g/ha [1, 5]: 0%
pest or weed control at 125 g/ha [2, 14]: 0%
pest or weed control at 500 g/ha [2, 7]: 0%
pest or weed control at 125 g/ha [3, 15]: 0%
pest or weed control at 500 g/ha [3, 9]: 0%
pest or weed control at 125 g/ha [4, 16]: 0%
pest or weed control at 500 g/ha [4, 10]: 0%
pest or weed control at 125 g/ha (Kochia (Kochia scoparia); [17]): 0%
pest or weed control at 500 g/ha (Kochia (Kochia scoparia); [12]): 0%

melting point: 150 to 153 °C
Structure (SMILES): O=C1NCC(c2cccc(I)c2)C1C(=O)Nc1ccccc1F (stereo not shown) [Compound 845]
pest or weed control at 125 g/ha [1, 18]: 0%
pest or weed control at 500 g/ha [1, 19]: 30%
pest or weed control at 125 g/ha [2, 6]: 80%
pest or weed control at 500 g/ha [2, 20]: 90%
pest or weed control at 125 g/ha [3, 8]: 90%
pest or weed control at 500 g/ha [3, 21]: 90%
pest or weed control at 125 g/ha [4, 22]: 0%
pest or weed control at 500 g/ha [4, 23]: 0%
pest or weed control at 125 g/ha (Kochia (Kochia scoparia); [11]): 40%
pest or weed control at 500 g/ha (Kochia (Kochia scoparia); [24]): 90%

melting point: 123 to 127.7 °C
Structure (SMILES): O=C1NC[C@H](c2nccs2)[C@H]1C(=O)Nc1ccccc1F [Compound 1181]
pest or weed control at 125 g/ha [1, 13]: 0%
pest or weed control at 500 g/ha [1, 18]: 0%
pest or weed control at 125 g/ha [2, 25]: 0%
pest or weed control at 500 g/ha [2, 6]: 0%
pest or weed control at 125 g/ha [3, 26]: 0%
pest or weed control at 500 g/ha [3, 8]: 0%
pest or weed control at 125 g/ha [4, 16]: 0%
pest or weed control at 500 g/ha [4, 22]: 0%
pest or weed control at 125 g/ha (Kochia (Kochia scoparia); [17]): 0%
pest or weed control at 500 g/ha (Kochia (Kochia scoparia); [11]): 0%

melting point: 118 to 121 °C
Structure (SMILES): CN1CC(c2ccccc2OC(F)(F)C(F)F)C(C(=O)Nc2ccccc2F)C1=O (stereo not shown) [Compound 1053]
pest or weed control at 125 g/ha [1, 27]: 0%
pest or weed control at 500 g/ha [1, 5]: 0%
pest or weed control at 125 g/ha [2, 14]: 0%
pest or weed control at 500 g/ha [2, 7]: 0%
pest or weed control at 125 g/ha [3, 15]: 0%
pest or weed control at 500 g/ha [3, 9]: 60%
pest or weed control at 125 g/ha [4, 28]: 0%
pest or weed control at 500 g/ha [4, 10]: 0%
pest or weed control at 125 g/ha (Kochia (Kochia scoparia); [29]): 0%
pest or weed control at 500 g/ha (Kochia (Kochia scoparia); [12]): 0%

melting point: 161 to 164 °C
Structure (SMILES): O=C1NC[C@H](c2cccc(I)c2)[C@H]1C(=O)Nc1ccccc1F [Compound 1160]
pest or weed control at 125 g/ha [1, 13]: 0%
pest or weed control at 500 g/ha [1, 18]: 0%
pest or weed control at 125 g/ha [2, 25]: 90%
pest or weed control at 500 g/ha [2, 6]: 90%
pest or weed control at 125 g/ha [3, 26]: 90%
pest or weed control at 500 g/ha [3, 8]: 90%
pest or weed control at 125 g/ha [4, 16]: 0%
pest or weed control at 500 g/ha [4, 22]: 0%
pest or weed control at 125 g/ha (Kochia (Kochia scoparia); [17]): 0%
pest or weed control at 500 g/ha (Kochia (Kochia scoparia); [11]): 50%

melting point: 192 to 195 °C
Structure (SMILES): O=C1NC[C@H](c2cncc(C(F)(F)F)c2)[C@H]1C(=O)Nc1ccccc1F [Compound 887]
pest or weed control at 125 g/ha [1, 18]: 0%
pest or weed control at 500 g/ha [1, 19]: 0%
pest or weed control at 125 g/ha [2, 6]: 80%
pest or weed control at 500 g/ha [2, 20]: 90%
pest or weed control at 125 g/ha [3, 8]: 90%
pest or weed control at 500 g/ha [3, 21]: 90%
pest or weed control at 125 g/ha [4, 22]: 0%
pest or weed control at 500 g/ha [4, 23]: 0%
pest or weed control at 125 g/ha (Kochia (Kochia scoparia); [11]): 0%
pest or weed control at 500 g/ha (Kochia (Kochia scoparia); [24]): 20%

melting point: 94 to 97 °C
Structure (SMILES): C=CCOc1cccc(C2CN(C)C(=O)C2C(=O)Nc2cccc(F)c2F)c1 (stereo not shown) [Compound 933]
pest or weed control at 500 g/ha [1, 5]: 70%
pest or weed control at 125 g/ha [2, 6]: 90%
pest or weed control at 500 g/ha [2, 7]: 100%
pest or weed control at 125 g/ha [3, 8]: 90%
pest or weed control at 500 g/ha [3, 9]: 100%
pest or weed control at 500 g/ha [4, 10]: 90%
pest or weed control at 125 g/ha (Kochia (Kochia scoparia); [11]): 50%
pest or weed control at 500 g/ha (Kochia (Kochia scoparia); [12]): 90%

melting point: 192 to 196 °C
Structure (SMILES): O=C1NCC(c2ccccc2OC(F)(F)C(F)F)C1C(=O)Nc1cccc(F)c1F (stereo not shown) [Compound 1054]
pest or weed control at 125 g/ha [1, 27]: 0%
pest or weed control at 500 g/ha [1, 5]: 0%
pest or weed control at 125 g/ha [2, 14]: 0%
pest or weed control at 500 g/ha [2, 7]: 0%
pest or weed control at 125 g/ha [3, 15]: 0%
pest or weed control at 500 g/ha [3, 9]: 0%
pest or weed control at 125 g/ha [4, 28]: 0%
pest or weed control at 500 g/ha [4, 10]: 0%
pest or weed control at 125 g/ha (Kochia (Kochia scoparia); [29]): 0%
pest or weed control at 500 g/ha (Kochia (Kochia scoparia); [12]): 0%
